Results as given in PubChem BioAssay AID330 (DTP/NCI, 2004).
Values joined by “and” are separate entries in the source; they are usually repeats but may differ in a detail not shown here. Equal entries are not always repeated. Inconclusive results and toxic doses are left out.

System: P388 leukemia ip, CD2F1 mice, survival T/C
Test: NCI In Vivo Anticancer Drug Screen. Data for tumor model P388 Leukemia (intraperitoneal) in CD2F1 (CDF1) mice
Conditions: endpoint: median survival time, higher = longer survival
In short: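 Mice carrying the transplanted tumor received test compound or vehicle. Survival was recorded in each group, and the value is the treated-group measurement divided by that of the vehicle-treated control group.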

[1] = dose: 60.0 mg/kg/injection, schedule: Q01DX005 (ip), vehicle: Klucel (hydroxypropylcellulose) (HPC)
[2] = dose: 120.0 mg/kg/injection, schedule: Q01DX005 (ip), vehicle: Klucel (hydroxypropylcellulose) (HPC)
[3] = dose: 50.0 mg/kg/injection, schedule: Q01DX005 (ip), vehicle: saline with Tween-80
[4] = dose: 100.0 mg/kg/injection, schedule: Q01DX005 (ip), vehicle: saline with Tween-80
[5] = dose: 200.0 mg/kg/injection, schedule: Q01DX005 (ip), vehicle: saline with Tween-80
[6] = dose: 50.0 mg/kg/injection, schedule: Q01DX005 (ip), vehicle: Klucel (hydroxypropylcellulose) (HPC)
[7] = dose: 100.0 mg/kg/injection, schedule: Q01DX005 (ip), vehicle: Klucel (hydroxypropylcellulose) (HPC)
[8] = dose: 200.0 mg/kg/injection, schedule: Q01DX005 (ip), vehicle: Klucel (hydroxypropylcellulose) (HPC)
[9] = dose: 6.25 mg/kg/injection, schedule: Q01DX009 (ip), vehicle: saline with Tween-80
[10] = dose: 12.5 mg/kg/injection, schedule: Q01DX009 (ip), vehicle: saline with Tween-80
[11] = dose: 12.5 mg/kg/injection, schedule: Q01DX009 (ip), vehicle: Klucel (hydroxypropylcellulose) (HPC)
[12] = dose: 25.0 mg/kg/injection, schedule: Q01DX009 (ip), vehicle: Klucel (hydroxypropylcellulose) (HPC)

c1cc2c(ncn3nnnc23)[nH]1
T/C (dose: 6.25 mg/kg/injection, schedule: Q01DX009 (ip), vehicle: water): 91 % of control | T/C (dose: 12.5 mg/kg/injection, schedule: Q01DX009 (ip), vehicle: water): 107 % of control | T/C (dose: 25.0 mg/kg/injection, schedule: Q01DX009 (ip), vehicle: water): 108 % of control | T/C (dose: 50.0 mg/kg/injection, schedule: Q01DX009 (ip), vehicle: water): 109 % of control | T/C (dose: 100.0 mg/kg/injection, schedule: Q01DX009 (ip), vehicle: water): 118 % of control

CCOc1c(N=Nc2ccc(OC)cc2)c(C)nn1C(N)=S
T/C (dose: 15.0 mg/kg/injection, schedule: Q01DX005 (ip), vehicle: Klucel + Tween-80): 101 % of control | T/C (dose: 30.0 mg/kg/injection, schedule: Q01DX005 (ip), vehicle: Klucel + Tween-80): 100 % of control | T/C (dose: 60.0 mg/kg/injection, schedule: Q01DX005 (ip), vehicle: Klucel + Tween-80): 98 % of control and 123 % of control | T/C (dose: 120.0 mg/kg/injection, schedule: Q01DX005 (ip), vehicle: Klucel + Tween-80): 110 % of control and 91 % of control | T/C (dose: 240.0 mg/kg/injection, schedule: Q01DX005 (ip), vehicle: Klucel + Tween-80): 100 % of control

Cn1c(=O)oc2cc(C(=O)CN3CCN(c4cccc(C(F)(F)F)c4)CC3)ccc21
T/C [1]: 92 % of control | T/C [2]: 93 % of control

CC(CN=C(CC(=O)c1ccccc1)c1ccccc1)N=C(CC(=O)c1ccccc1)c1ccccc1 (configuration not stated)
T/C (dose: 50.0 mg/kg/injection, schedule: Q01DX009 (ip), vehicle: saline with Tween-80): 104 % of control | T/C (dose: 100.0 mg/kg/injection, schedule: Q01DX009 (ip), vehicle: saline with Tween-80): 103 % of control | T/C (dose: 200.0 mg/kg/injection, schedule: Q01DX009 (ip), vehicle: saline with Tween-80): 97 % of control

CSC(=S)n1nc(-c2ccccc2)c(N=Nc2cccc(Cl)c2Cl)c1-c1ccccc1
T/C (dose: 100.0 mg/kg/injection, schedule: Q01DX001 (ip), vehicle: saline with Tween-80): 87 % of control | T/C (dose: 200.0 mg/kg/injection, schedule: Q01DX001 (ip), vehicle: saline with Tween-80): 87 % of control | T/C (dose: 400.0 mg/kg/injection, schedule: Q01DX001 (ip), vehicle: saline with Tween-80): 97 % of control

CCOC(=O)CC1Cc2ccc3ccc(OC)cc3c2C1=O (configuration not stated)
T/C (dose: 12.5 mg/kg/injection, schedule: Q01DX009 (ip), vehicle: distilled water + Tween-80): 102 % of control | T/C (dose: 25.0 mg/kg/injection, schedule: Q01DX009 (ip), vehicle: distilled water + Tween-80): 100 % of control | T/C (dose: 50.0 mg/kg/injection, schedule: Q01DX009 (ip), vehicle: distilled water + Tween-80): 95 % of control | T/C (dose: 100.0 mg/kg/injection, schedule: Q01DX009 (ip), vehicle: distilled water + Tween-80): 97 % of control | T/C (dose: 200.0 mg/kg/injection, schedule: Q01DX009 (ip), vehicle: distilled water + Tween-80): 93 % of control

NC1=CC(=O)c2nc(-c3ccccc3N)ccc2C1=O
T/C (dose: 100.0 mg/kg/injection, schedule: Q04DX003 (ip), vehicle: Klucel (hydroxypropylcellulose) (HPC)): 109 % of control | T/C (dose: 200.0 mg/kg/injection, schedule: Q04DX003 (ip), vehicle: Klucel (hydroxypropylcellulose) (HPC)): 105 % of control

CCCCN(CCCC)CC(N=O)c1cc(-c2ccc(Cl)c(Cl)c2)nc2c(Cl)cc(Cl)cc12 (configuration not stated)
T/C [3]: 108 % of control | T/C [4]: 111 % of control | T/C [5]: 107 % of control

CC(=O)OCC1OC(N(O)Cc2ccccc2)C(OC(C)=O)C(OC(C)=O)C1OC(C)=O (configuration not stated)
T/C [6]: 100 % of control | T/C [7]: 95 % of control | T/C [8]: 86 % of control

O=C(O)c1ccccc1C(=O)O.[Cu+2].[NH-]CCC[NH-]
T/C (dose: 12.5 mg/kg/injection, schedule: Q04DX002 (ip), vehicle: saline with Tween-80): 115 % of control

CCCCOCc1c(-c2ccccc2)sc2ccccc2c1=O
T/C [3]: 97 % of control | T/C [4]: 102 % of control | T/C [5]: 100 % of control

O=C1CCCc2ccc([N+](=O)[O-])cc21
T/C (dose: 25.0 mg/kg/injection, schedule: Q01DX009 (ip), vehicle: suspension in saline): 98 % of control | T/C (dose: 50.0 mg/kg/injection, schedule: Q01DX009 (ip), vehicle: suspension in saline): 98 % of control | T/C (dose: 100.0 mg/kg/injection, schedule: Q01DX009 (ip), vehicle: suspension in saline): 93 % of control | T/C (dose: 200.0 mg/kg/injection, schedule: Q01DX009 (ip), vehicle: suspension in saline): 93 % of control

N#CC/C(=N\Nc1ccc([N+](=O)[O-])cc1[N+](=O)[O-])c1ccccc1
T/C (dose: 100.0 mg/kg/injection, schedule: Q04DX003 (ip), vehicle: saline with Tween-80): 100 % of control | T/C (dose: 200.0 mg/kg/injection, schedule: Q04DX003 (ip), vehicle: saline with Tween-80): 90 % of control | T/C (dose: 400.0 mg/kg/injection, schedule: Q04DX003 (ip), vehicle: saline with Tween-80): 95 % of control

N#Cc1nn(C(N)=O)c(N)c1C#N
T/C [1]: 104 % of control | T/C [2]: 105 % of control | T/C (dose: 240.0 mg/kg/injection, schedule: Q01DX005 (ip), vehicle: Klucel (hydroxypropylcellulose) (HPC)): 103 % of control

COc1ccc(/C=C2/N=C(c3ccc(Cl)c(Cl)c3)OC2=O)cc1OC
T/C [6]: 90 % of control | T/C [7]: 88 % of control | T/C [8]: 94 % of control

Nc1nc(Cl)nc2c1ncn2C1OC(CO)C(O)C1F (configuration not stated)
T/C (dose: 12.5 mg/kg/injection, schedule: Q01DX005 (ip), vehicle: saline): 122 % of control | T/C (dose: 200.0 mg/kg/injection, schedule: Q01DX005 (ip), vehicle: saline): 159 % of control

CC(=O)OCC(=O)[C@@]1(O)CC[C@H]2[C@@H]3C[C@H](F)C4=CC(=O)CC[C@]4(C)[C@H]3[C@@H](O)C[C@@]21C
T/C (dose: 100.0 mg/kg/injection, schedule: Q04DX003 (ip), vehicle: saline): 104 % of control | T/C (dose: 200.0 mg/kg/injection, schedule: Q04DX003 (ip), vehicle: saline): 100 % of control | T/C (dose: 400.0 mg/kg/injection, schedule: Q04DX003 (ip), vehicle: saline): 95 % of control

Nc1c(Cl)cc(Cl)cc1Cl
T/C (dose: 100.0 mg/kg/injection, schedule: Q04DX003 (ip), vehicle: alcohol): 108 % of control | T/C (dose: 200.0 mg/kg/injection, schedule: Q04DX003 (ip), vehicle: alcohol): 100 % of control | T/C (dose: 400.0 mg/kg/injection, schedule: Q04DX003 (ip), vehicle: alcohol): 100 % of control

COC(=O)C1=C(C)NC(C)=C(C(=O)OC)C1c1cc2ccccc2n2nnnc12
T/C (dose: 60.0 mg/kg/injection, schedule: Q01DX005 (ip), vehicle: saline with Tween-80): 95 % of control | T/C (dose: 120.0 mg/kg/injection, schedule: Q01DX005 (ip), vehicle: saline with Tween-80): 98 % of control | T/C (dose: 240.0 mg/kg/injection, schedule: Q01DX005 (ip), vehicle: saline with Tween-80): 88 % of control

N=C(N)c1ccc(C#Cc2ccc(C(=N)N)cc2)cc1
T/C (dose: 3.13 mg/kg/injection, schedule: Q01DX009 (ip), vehicle: saline with Tween-80): 94 % of control | T/C [9]: 92 % of control | T/C [10]: 95 % of control

CC1(C)OCC(C2OC3OC(C)(C)OC3C2(O)/C(N)=N/O)O1 (configuration not stated)
T/C (dose: 100.0 mg/kg/injection, schedule: Q04DX002 (ip), vehicle: saline): 103 % of control | T/C (dose: 200.0 mg/kg/injection, schedule: Q04DX002 (ip), vehicle: saline): 112 % of control | T/C (dose: 400.0 mg/kg/injection, schedule: Q04DX002 (ip), vehicle: saline): 122 % of control

C1CCC2[N-]CC3CCCCC3[N-]CC3CCCCC3[N-]CC3CCCCC3[N-]CC2C1.[Cu+2].[O-][Cl+3]([O-])([O-])O (configuration not stated)
T/C (dose: 0.78 mg/kg/injection, schedule: Q01DX009 (ip), vehicle: Klucel (hydroxypropylcellulose) (HPC)): 117 % of control | T/C [9]: 152 % of control | T/C (dose: 8.0 mg/kg/injection, schedule: Q01DX009 (ip), vehicle: saline with Tween-80): 154 % of control | T/C [11]: 87 % of control | T/C [10]: 158 % of control | T/C [12]: 87 % of control

O=c1oc2c(cc1Cl)CCc1ccccc1-2
T/C [3]: 104 % of control | T/C [4]: 102 % of control | T/C [5]: 97 % of control

O=C1CC2(CCCCC2)C(=O)N1c1cc([N+](=O)[O-])ccn1
T/C [11]: 100 % of control | T/C [12]: 101 % of control | T/C (dose: 50.0 mg/kg/injection, schedule: Q01DX009 (ip), vehicle: Klucel (hydroxypropylcellulose) (HPC)): 100 % of control and 92 % of control
